Measurements published in patent publication EP1964562A1, “PHARMACEUTICAL COMPOSITIONS CONTAINING DERIVATIVE SUBSTANCES OF THIAZOLIDINEDIONES COMBINED WITH A BIGUANIDE FOR USE IN TYPE 2 DIABETES MELLITUS” (priority 2005, dated 2007).
Like-named read-outs stand apart in the source and are kept apart here.

Columns and labels:
[1] = system: hepatic pioglitazone metabolism; settings: in vitro, molar concentration equal to pioglitazone; cited from earlier work
[2] = system: animal models of diabetes; settings: animal models of type 2 diabetes; cited from earlier work
[3] = target: T1, serum proteins, particularly serum albumin (Homo sapiens, UniProt P02768); settings: serum albumin; cited from earlier work
T1 construct: host or cells: serum
T1 sequence (P02768 25-609): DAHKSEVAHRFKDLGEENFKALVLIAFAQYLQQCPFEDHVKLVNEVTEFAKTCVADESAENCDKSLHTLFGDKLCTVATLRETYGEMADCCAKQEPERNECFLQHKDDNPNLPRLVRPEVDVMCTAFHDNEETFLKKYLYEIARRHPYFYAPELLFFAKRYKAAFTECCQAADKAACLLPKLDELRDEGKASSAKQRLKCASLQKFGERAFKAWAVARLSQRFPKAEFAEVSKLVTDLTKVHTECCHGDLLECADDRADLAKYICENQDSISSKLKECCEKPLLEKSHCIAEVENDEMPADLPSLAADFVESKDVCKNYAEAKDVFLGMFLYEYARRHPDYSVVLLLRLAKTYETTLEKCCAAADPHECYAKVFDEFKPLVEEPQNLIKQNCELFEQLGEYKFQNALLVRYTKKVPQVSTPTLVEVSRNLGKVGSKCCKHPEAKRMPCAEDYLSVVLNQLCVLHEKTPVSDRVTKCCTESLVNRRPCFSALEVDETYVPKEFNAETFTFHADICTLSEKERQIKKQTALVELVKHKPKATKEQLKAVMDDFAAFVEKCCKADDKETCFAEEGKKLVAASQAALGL

lipid metabolism = settings: therapeutic doses, short and long term clinical studies; cited from earlier work
[4] = cited from earlier work
[5] = system: individuals diagnosed with DM2 and obesity; assay: Example 1: multicentric, randomized, double blind placebo-controlled trial, 8 weeks; type: in vivo, patients
Description: A multicentric, randomized, double blind placebo-controlled trial was conducted. In which 600 individuals diagnosed with DM2 and obesity with a BMI higher than 35 kg/m^2 were included.

[6] = system: patients diagnosed with DM2 and obesity; assay: Example 2: multicentric, randomized, double blind placebo-controlled trial, 12 weeks; type: in vivo; settings: compared to levels at admission
Description: A multicentric, randomized, double blind placebo-controlled trial was conducted. In which 300 patients diagnosed with DM2 and obesity were included. The object of the study was to establish the reduction in lipid profile and in overweight.

[7] = cited from earlier work; remark: listed apart in the source
[8] = system: serum proteins, particularly serum albumin; settings: human; cited from earlier work
P-450 activity = settings: incubated with human P-450 liver microsomes; cited from earlier work

## CC(=O)N1CCN(c2ccc(OCC3COC(Cn4ccnc4)(c4ccc(Cl)cc4Cl)O3)cc2)CC1 (centres unmarked) [Ketoconazole]
[1]
  inhibition of hepatic pioglitazone metabolism: up to 85%

## CC(=O)c1ccc(CCOc2ccc(CC3SC(=O)NC3=O)cc2)nc1 (centres unmarked) [M-III]
[2]
  pharmacological activity: pharmacologically active
[3]
  bound to serum albumin: > 98%

## CC(O)c1ccc(CCOc2ccc(CC3SC(=O)NC3=O)cc2)nc1 (centres unmarked) [M-IV]
[2]
  pharmacological activity: pharmacologically active
[3]
  bound to serum albumin: > 98%

## CN(C)C(=N)N=C(N)N [metformin, Metformin]
Lipid metabolism
  total cholesterol, LDL cholesterol and triglyceride levels: reduces
[4]; dose of 850 mg, with food
  increase of Tmax by food: 0.583 h
[4]; human, in vivo, po
  Tmax: 2.5 h
  maximum plasma concentration: ≤ 4 µg/mL
  non-absorbed fraction recovered in the feces: 20-30%
  steady-state plasma concentrations: less than 1 µg/ml
[4]; human, plasma, po
  maximum plasma concentration: 1.5 µg/mL
[4]; in vivo
  plasma concentrations in cases of lactacidosis: exceed 5 µg/ml
[5]
  patients' weight change: increased
[6]
  reduction in triglycerides: no significant reduction

## CCc1ccc(CCOc2ccc(CC3SC(=O)NC3=O)cc2)nc1 (centres unmarked) [pioglitazone, Pioglitazone]
[7]; calculated
  apparent clearance, CL/F: 5 to 7 L/h
[7]; human, serum
  mean serum half-live: 3 to 7 h
[7]; in vivo
  renal elimination: negligible
  time to reach steady-state serum concentrations: ≤ 7 days
[7]; oral administration at fasting
  time to maximum concentrations: ≤ 2 h
  time until measurable in serum: ≤ 30 min
[8]
  bound to serum proteins: > 99%
P-450 activity
  inhibition of P-450 activity: did not inhibit
